The test system of the assay is SARS-CoV-2 RBD^WT and mutant proteins on HEK293-hACE2-EGFP cells. In kind it is cell-based, human.

Structures are written as SMILES.

Turning to `O=c1c(O)c(-c2cc(O)c(O)c(O)c2)oc2cc(O)cc(O)c12` [myricetin, 3,5,7-trihydroxy-2-(3,4,5-tri hydroxyphenyl)-4-benzopyrone], the “binding of SARS-CoV-2 S protein to HEK293-hACE2-EGFP cell membranes” value is on record as “blocked”.

For the origin of these results see publication PMC10162847 (Phytomedicine, 2023).
